Experimental data as given in the NIST ThermoML archive (doi:10.1021/je900550v).

Settings: 101.33 kPa, Liquid; for speed of sound: Pulse-echo method; for mass density: Vibrating tube method

CCCC(=O)[O-].C[NH2+]CCO [N-methyl-2-hydroxyethylammonium butanoate]
Settings	mass density [kg/m3]	speed of sound [m/s]	viscosity [mPa·s]
308.15 K	1032.53	1583.1	162.8
308.4 K	1032.37	1582.3	–
308.65 K	1032.2	1581.5	–
308.9 K	1032.03	1580.7	–
309.15 K	1031.86	1580	–
309.4 K	1031.69	1579.2	–
309.65 K	1031.52	1578.4	–
309.9 K	1031.35	1577.6	–
310.15 K	1031.18	1576.8	–
310.4 K	1031.01	1576	–
310.65 K	1030.85	1575.3	141.4
310.91 K	1030.68	1574.5	–
311.16 K	1030.51	1573.7	–
311.4 K	1030.34	1572.9	–
311.65 K	1030.17	1572.2	–
311.91 K	1030	1571.4	–
312.16 K	1029.83	1570.6	–
312.41 K	1029.65	1569.8	–
312.65 K	–	–	127.1
312.66 K	1029.49	1569	–
312.91 K	1029.32	1568.3	–
313.16 K	1029.14	1567.5	–
313.4 K	1028.97	1566.7	–
313.66 K	1028.8	1565.9	–
313.9 K	1028.64	1565.2	–
314.15 K	1028.46	1564.4	–
314.4 K	1028.29	1563.6	–
314.65 K	1028.12	1562.9	–
314.9 K	1027.95	1562.1	–
315.15 K	1027.78	1561.3	107.78
315.41 K	1027.61	1560.5	–
315.65 K	1027.43	1559.8	–
315.91 K	1027.26	1559	–
316.16 K	1027.09	1558.2	–
316.41 K	1026.92	1557.5	–
316.66 K	1026.75	1556.7	–
316.91 K	1026.58	1555.9	–
317.16 K	1026.41	1555.2	–
317.4 K	1026.23	1554.3	–
317.66 K	1026.06	1553.4	–
317.91 K	1025.89	1552.6	–
318.15 K	–	–	93.33
318.16 K	1025.72	1551.9	–
318.41 K	1025.55	1551.1	–
318.65 K	1025.37	1550.3	–
318.9 K	1025.2	1549.5	–
319.16 K	1025.03	1548.7	–
319.41 K	1024.86	1548	–
319.65 K	1024.69	1547.2	–
319.91 K	1024.51	1546.4	–
320.15 K	–	–	79.57
320.16 K	1024.34	1545.6	–
320.41 K	1024.17	1544.8	–
320.65 K	1024	1544	–
320.91 K	1023.82	1543.3	–
321.15 K	1023.65	1542.5	–
321.41 K	1023.47	1541.7	–
321.66 K	1023.3	1540.9	–
321.9 K	1023.13	1540.1	–
322.15 K	1022.96	1539.3	–
322.41 K	1022.78	1538.6	–
322.65 K	1022.61	1537.8	–
322.91 K	1022.43	1537	–
323.15 K	–	–	71.53
323.16 K	1022.26	1536.2	–
323.41 K	1022.08	1535.4	–
323.65 K	1021.91	1534.7	–
323.91 K	1021.74	1533.9	–
324.16 K	1021.56	1533.1	–
324.41 K	1021.39	1532.3	–
324.65 K	1021.22	1531.5	–
324.9 K	1021.04	1530.8	–
325.16 K	1020.87	1530	–
325.4 K	1020.69	1529.2	–
325.66 K	1020.52	1528.4	–
325.9 K	1020.35	1527.7	–
326.16 K	1020.17	1526.9	–
326.41 K	1019.99	1526.1	–
326.66 K	1019.82	1525.3	–
326.9 K	1019.65	1524.5	–
327.16 K	1019.47	1523.7	–
327.4 K	1019.29	1522.9	–
327.66 K	1019.12	1522.2	–
327.9 K	1018.95	1521.4	–
328.15 K	1018.77	1520.6	–
328.41 K	1018.6	1519.8	–
328.66 K	1018.42	1519	–
328.9 K	1018.25	1518.2	–
329.16 K	1018.07	1517.4	–
329.4 K	1017.9	1516.6	–
329.65 K	1017.72	1515.9	–
329.9 K	1017.54	1515.1	–
330.16 K	1017.37	1514.3	–
330.41 K	1017.19	1513.5	–
330.66 K	1017.01	1512.7	–
330.91 K	1016.84	1511.9	–
331.16 K	1016.66	1511.1	–
331.41 K	1016.48	1510.3	–
331.66 K	1016.3	1509.6	–
331.91 K	1016.13	1508.8	–
332.16 K	1015.96	1508	–
332.41 K	1015.78	1507.2	–
332.66 K	1015.6	1506.4	–
332.91 K	1015.43	1505.6	–
333.16 K	1015.25	1504.9	–
333.41 K	1015.07	1504.1	–
333.66 K	1014.89	1503.3	–
333.91 K	1014.72	1502.5	–
334.16 K	1014.54	1501.7	–
334.41 K	1014.36	1500.9	–
334.66 K	1014.18	1500.2	–
334.91 K	1014.01	1499.4	–
335.16 K	1013.83	1498.6	–
335.41 K	1013.65	1497.8	–
335.66 K	1013.47	1497	–
335.91 K	1013.3	1496.2	–
336.16 K	1013.12	1495.4	–
336.41 K	1012.94	1494.7	–
336.66 K	1012.76	1493.9	–
336.9 K	1012.58	1493.1	–
337.16 K	1012.4	1492.3	–
337.4 K	1012.22	1491.5	–
337.66 K	1012.04	1490.8	–
337.9 K	1011.86	1490	–
338.15 K	1011.69	1489.3	–
